Experimental data as given in patent US20240103005A1, “N-ACRYLOYLINDOLES AND METHODS OF USE” (The University of Hong Kong, priority 2022, published 2024).

What was measured:
HepG2 cells [1] = test: Confocal fluorescence imaging of HepG2 cells labeled with probe for different time intervals; type: cell-based; conditions: 10 μM; for cellular fluorescence intensity: 15, 30 and 60 min
Experimental: HepG2 Cells Labeled by NAIA-5 or IAA with Different Time Intervals for Imaging Experiments
HepG2 cells were plated on a 8-well Nunc Lab-Tek chambered slide system (ThermoFisher Scientific; 177402) and allowed to grow in complete medium at 37° C. with 5% CO2 to ca. 70% confluency. The cells were incubated with NAIA-5 and IAA (10 μM) respectively in complete medium for the indicated time interval, washed with PBS and then fixed by 4% paraformaldehyde in PBS at room temperature for 15 min. After washing with PBS, the fixed cells were permeabilized by PBS with 0.5 vol % Triton X-100 at room temperature for 30 min. The cells were then washed and incubated with a master mix solution containing CuSO4, THTPA, azide-fluor 545 and sodium ascorbate at final concentrations of 100, 500, 20 and 5000 μM respectively. After incubation in dark at room temperature for 1 h, the cells were washed with PBS and stained by Hoechst 33342 in PBS (final concentration=8.2 μM) at room temperature for 15 min. The cells were washed thrice with PBS and then imaged by confocal fluorescence microscopy. Hoechst 33342 was excited with a 405 nm diode laser, and emission was collected on a META detector between 371 and 507 nm. Fluor 545 was excited by a 561 nm diode laser and emission was collected on a META detector between 576 and 683 nm. Image analysis was performed by use of ImageJ. A region of interest (ROI) was created around individual cell, and cellular fluorescence intensity was measured. The reported average cellular fluorescence intensity was determined by averaging the measured intensity from 30 different cells from 3 different biological replicates/group. Statistical analyses were performed with a two-tailed Student's t-test (MS Excel).
Confocal fluorescence microscopy imaging was performed with a Zeiss laser scanning microscope 880 with a 20× water-immersion objective lens using ZEN 2.3 (Black Version) software (Carl Zeiss) with 3× magnification zoom-in. Hoechst 33342 was excited with a 405 nm diode laser, and emission was collected on a META detector between 371 and 507 nm. Fluor 545 was excited by a 561 nm diode laser and emission was collected on a META detector between 576 and 683 nm. Image analysis was performed by use of ImageJ. A region of interest (ROI) was created around individual cell, and cellular fluorescence intensity was measured. The reported average cellular fluorescence intensity was determined by averaging the measured intensity from 30 different cells from 3 different biological replicates/group. Statistical analyses were performed with a two-tailed Student's t-test (MS Excel).
To examine the underlying mechanism of better cysteine labeling in live cells by NAIA, we conducted confocal fluorescence imaging experiments on HepG2 cells treated with NAIA-5 and IAA respectively (both at 10 μM). After treatment for the indicated time intervals, the cells were washed with PBS, fixed by 4% paraformaldehyde in PBS and reacted with azide-fluor 545 through CuAAC. The stained cells were then washed with PBS and imaged by confocal fluorescence microscopy. […] In view of the fast and better labeling of reactive cysteines in live cells, we anticipate that NAIAs can be good candidates for capturing cysteines with dynamic changes in reactivity/modifications in cells. The ability of NAIAs to work nicely with confocal fluorescence microscopic imaging also illustrates their potential application as imaging probes for cellular cysteine reactivity. […]

HepG2 cells [2] = test: MTT cell viability assay; type: cell-based
Experimental: MTT Cell Viability Assay of Cells Treated with NAIA-5
HepG2 cells were plated on 96-well plates (Corning, 3904) at 30,000 cells per well in 100 μL of complete medium and allowed to grow overnight. The cells were then incubated with DMSO solvent control or NAIA-5 at indicated concentrations for 1 h. The treated cells were then added with 10 μL of MTT solution in PBS (5 mg/mL) and incubated in dark at 37° C. with 5% CO2 for 4 h. After that, 100 μL of SDS solution in PBS ([…] with 0.01M HCl) was added for cell lysis. The plates were kept in dark overnight and cell viability were assayed by the absorption at 580 nm on Perkin Elmer Victor 3 ([…]).

HepG2 cells [3] = test: MS-based ABPP, live-cell cysteine labeling of HepG2 cells; design: species or system human; conditions: 10 μM, 1 h
Experimental: MS-Based ABPP Experiments to Identify Liganded Cysteines in HepG2 Cells by Live-Cell Labeling Using NAIA-5 or IAA.
HepG2 cells were plated on 15 cm tissue culture plates and allowed to grow in complete medium at 37° C. with 5% CO2 to ca. 80% confluency. The cells were then treated with NAIA-5 and IAA (10 μM), respectively, in complete medium and incubated at 37° C. with 5% CO2 for 1 h. The cells were washed, scrapped in PBS and lysed by sonication. After BCA assay, the cell lysates were diluted to 2 mg/mL, and 2 mL of the lysates were used for n=1 sample preparation. The lysates were then subjected to CuAAC reaction with DTB-PEG-azide, acetone precipitation, enrichment by streptavidin beads, reduction by TCEP followed by cysteine carbamidomethylation and tryptic digestion according to the same procedure described for the sample preparation of HepG2 cell lysate experiment except no pairing of the NAIA-5- and IAA-labeled samples. The probe-modified peptides were then eluted by elution buffer solution (MeCN/H2O, 1:1, v/v; with 0.1% formic acid), dried, desalted by C18 Stage tips and sent for LC-MS/MS analysis using Aurora C18 UHPLC column (75 μm i.d.×25 cm length×1.6 μm particle size; IonOpticks, Australia) coupled to timsTOF Pro mass spectrometer (Bruker), with the same experimental settings as described for the experiment on HepG2 cell lysates. […]

cellular permeability (HepG2 cells [1]; inferred from live-cell imaging) | SMILES | labeling of cytosolic and nuclear proteins (colocalization with Hoechst channel) (HepG2 cells [1]) | cellular fluorescence intensity (HepG2 cells [1]) | cellular toxicity (in words) (HepG2 cells [2]; 10 μM for 1 h) | IC50 (HepG2 cells [2]; MTT, 1 h incubation, read-out: IC50 (cytotoxicity)) | cell viability (in words) (HepG2 cells [2]; treatment for 1 h) | number of labeled cysteines in live cells compared with IAA (HepG2 cells [3])
– | C#CCCCCNC(=O)CI [IAA, N-Hex-5-ynyl-2-iodoacetamide, reference compound] | lower Manders' colocalization coefficient | much weaker fluorescence at 15 min | – | – | – | –
good cellular permeability | C#CCCCCNC(=O)COc1ccc2c(ccn2C(=O)C=C)c1 [NAIA-5] | good labeling of proteins in both cytosol and nucleus | Significantly higher fluorescence intensities were found in cells treated with NAIA-5 than IAA | no significant cellular toxicity was found | > 40 µM | no significant changes in viability of HepG2 cells | higher number of labeled cysteines than IAA
